Where “and” joins values, the source holds several entries; their conditions need not be identical. Equal values may be shown once.
Experiments:
Lp-PLA2 [1] = biological target: T1, Lp-PLA2 (Homo sapiens, UniProt Q13093); assay: Auto PAF AH assay (Azwell kit, Olympus Au640 analyzer); type: biochemical; settings: plasma of individual human subjects
T1 sequence (Q13093 22-441): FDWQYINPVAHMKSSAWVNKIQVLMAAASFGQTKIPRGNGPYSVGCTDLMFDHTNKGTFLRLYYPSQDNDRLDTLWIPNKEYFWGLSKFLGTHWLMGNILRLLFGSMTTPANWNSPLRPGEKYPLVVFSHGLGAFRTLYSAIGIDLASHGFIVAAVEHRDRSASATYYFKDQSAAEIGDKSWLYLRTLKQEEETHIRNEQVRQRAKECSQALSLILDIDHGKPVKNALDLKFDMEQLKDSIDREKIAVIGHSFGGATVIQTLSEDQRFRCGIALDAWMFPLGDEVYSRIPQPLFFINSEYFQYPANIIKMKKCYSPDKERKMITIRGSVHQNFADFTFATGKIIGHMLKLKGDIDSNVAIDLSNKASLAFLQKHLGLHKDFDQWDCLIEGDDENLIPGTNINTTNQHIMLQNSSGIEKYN
Description: The Auto PAF AH assay kit, manufactured by Azwell (Osaka, Japan), is commercially available in the United States through Karlan Research Products Corporation (Santa Rosa, Calif.).
Prepare the following reagents: • R1: Use this buffer solution as supplied in Azwell Auto PAF AH assay kit. Store at 4° C. Protect from light. • R2: Prepare the R2 working solution by mixing R2A and R2B (supplied in Azwell Auto PAF AH assay kit) in the proportion of 19:1, Store at 4° C. Protect from light. • 3. […] Briefly centrifuge to spin down fibrin clots/particles in the plasma. • 4. Place Sarstedt tubes containing plasma samples onto sample tubes that fit the instrument. Run plasma samples through the Au640 analyzer. After choosing the PAF AH assay program, the analytical procedure described below is performed automatically: • Test sample (2 μL)+R1 (240 μL), 37° C., 5 minutes [0-5 minutes] • Add R2 (80 μL), 37° C., 5 minutes [5-10 minutes] • Measure the absorbance at 410 nm and 480 nm [6-8 minutes] • Calculate PAF AH activity (IU/L) • 5.

Lp-PLA2 [2] = biological target: T1, Lp-PLA2; assay: High throughput radiometric assay for Lp-PLA2 activity (3H-PAF); type: biochemical; settings: plasma of individual human subjects
Description: (cat #6005162) Reagents • HEPES (4-(2-hydroxyethyl)-1-piperazineethane sulfonic acid) Sigma Chemical Co., St. Louis Mo. […] (Cat # E7889; 0.5 M) • ^3H-Platelet Activating Factor, 1-O-Hexadecyl-[acetyl-^3H(N)], (^3H-PAF)-NEN Life Science Products, Roxbury, Mass. (Cat # NET-910, supplied as an ethanol solution, typically 0.1 mCi/mL; 250 uCi) • C16-PAF, (1-hexadecyl-2-acetyl-sn-glycero-3-phosphocholine): Avanti Polar Lipids, Alabaster, Ala. […] (Cat # T9159) Assay Buffer • 100 mM Hepes, pH 7.4 • 150 mM NaCl • 5 mM EDTA • Store it at room temperature Procedures • 1. Prepare a ^3H-PAF working solution (for 100 reactions): • a) Aliquot 480 μl ^3H-PAF (10 μM=0.1 mCi/ml at 10.0 Ci/mmol) and 125.3 μl of [C16]PAF (5.0 mg/ml; MW: 524) to a tube; • b) Mix and air dry in the hood; • c) Resuspend the dried pellets in 12.0 ml of assay buffer giving working solutions of 100 μM PAF (i.e. ^3H-PAF at 0.4 μM and cold [C16]PAF at 99.6 μM); • 2. Aliquot 5 μL of assay buffer (for Total counts and Blanks; n=8) or plasma samples in duplicates into a 96-well plate; • 3. Equilibrate the plate to 21° C.; • 4. Add 100 μL of the ^3H-PAF solution to each well, mix and incubate the plate at 21° C. for 5 minutes; • 5. […]; • 6. Add 25 μL of ice-cold TCA solution (56%) to each well, mix and incubate the plate in a refrigerator for 15 minutes; • 7. Centrifuge the plate at 6,000 g for 15 minutes at 4° C.; • 8. […] Add 10 μL of ^3H-PAF working solution to 6 Total Counts wells; • 10. […] Cover the plate with a plate tape and vortex mix at max speed for 10 minutes; • 12. […] Count with a TopCount scintillation counter for 2 minutes each; and • 14.

SMILES: COCCN1CCC(N(Cc2ccc(-c3ccc(C(F)(F)F)cc3)cc2)C(=O)Cn2c(SCc3cccc(F)c3F)cc(=O)c3ccccc32)CC1 [Formula I]
- % Inhibition Auto PAF AH (Lp-PLA2 [1]; 50 mg, 12 hr after dosing): 14.26% and 18.76% and −8.39%
- Lp-PLA2 Activity Auto PAF AH (Lp-PLA2 [1]; 50 mg, 12 hr after dosing): 261.50 nmol/min/mL and 409.50 nmol/min/mL and 336.00 nmol/min/mL and 307.00 nmol/min/mL
- % Inhibition Auto PAF AH (Lp-PLA2 [1]; 120 mg, 0.5 hr after dosing): 15.42% and 8.74% and 9.58% and 6.66%
- % Inhibition Auto PAF AH (Lp-PLA2 [1]; 120 mg, 1 hr after dosing): 11.34% and 7.73%
- % Inhibition Auto PAF AH (Lp-PLA2 [1]; 120 mg, 2 hr after dosing): 18.04% and 21.33% and 8.63% and 18.61% and 21.05%
- % Inhibition Auto PAF AH (Lp-PLA2 [1]; 120 mg, 3 hr after dosing): 12.42% and 16.24% and 5.90% and 14.65%
- % Inhibition Auto PAF AH (Lp-PLA2 [1]; 120 mg, 5 hr after dosing): −1.63% and 5.62%
- Lp-PLA2 Activity Auto PAF AH (Lp-PLA2 [1]; 120 mg, 5 hr after dosing): 353.50 nmol/min/mL and 748.00 nmol/min/mL and 416.00 nmol/min/mL and 428.50 nmol/min/mL and 377.00 nmol/min/mL
- % Inhibition Auto PAF AH (Lp-PLA2 [1]; 120 mg, 6 hr after dosing): 13.73% and 2.99% and 6.47%
- Lp-PLA2 Activity Auto PAF AH (Lp-PLA2 [1]; 120 mg, 6 hr after dosing): 330.00 nmol/min/mL and 714.00 nmol/min/mL and 412.00 nmol/min/mL and 393.00 nmol/min/mL and 366.00 nmol/min/mL
- % Inhibition Auto PAF AH (Lp-PLA2 [1]; 120 mg, 9 hr after dosing): 11.63%
- % Inhibition Auto PAF AH (Lp-PLA2 [1]; 120 mg, 12 hr after dosing): 7.06% and −3.52%
- % Inhibition Radiometric (Lp-PLA2 [2]; 50 mg, 0.5 hr after dosing): 22.34% and 17.17% and 25.59%
- Lp-PLA2 Activity Radiometric (Lp-PLA2 [2]; 50 mg, 0.5 hr after dosing): 65.24 nmol/min/mL and 50.18 nmol/min/mL and 78.40 nmol/min/mL and 22.46 nmol/min/mL and 104.52 nmol/min/mL
- % Inhibition Radiometric (Lp-PLA2 [2]; 50 mg, 1 hr after dosing): 77.76% and 60.11%
- Lp-PLA2 Activity Radiometric (Lp-PLA2 [2]; 50 mg, 1 hr after dosing): 15.85 nmol/min/mL and 26.80 nmol/min/mL and 18.68 nmol/min/mL and 10.60 nmol/min/mL and 30.87 nmol/min/mL
- Lp-PLA2 Activity Radiometric (Lp-PLA2 [2]; 50 mg, 2 hr after dosing): 10.00 nmol/min/mL
- Lp-PLA2 Activity Radiometric (Lp-PLA2 [2]; 50 mg, 4 hr after dosing): 10.02 nmol/min/mL and 20.76 nmol/min/mL and 14.37 nmol/min/mL and 11.47 nmol/min/mL
- % Inhibition Radiometric (Lp-PLA2 [2]; 50 mg, 5 hr after dosing): 86.07%
- % Inhibition Radiometric (Lp-PLA2 [2]; 120 mg, 0.5 hr after dosing): 64.75% and 81.63% and 44.97% and 33.96%
- Lp-PLA2 Activity Radiometric (Lp-PLA2 [2]; 120 mg, 0.5 hr after dosing): 35.83 nmol/min/mL and 25.97 nmol/min/mL and 16.07 nmol/min/mL and 39.68 nmol/min/mL and 58.09 nmol/min/mL
- % Inhibition Radiometric (Lp-PLA2 [2]; 120 mg, 1 hr after dosing): 88.66%
- Lp-PLA2 Activity Radiometric (Lp-PLA2 [2]; 120 mg, 1 hr after dosing): 10.00 nmol/min/mL
- Lp-PLA2 Activity Radiometric (Lp-PLA2 [2]; 120 mg, 2 hr after dosing): 10.00 nmol/min/mL
- Lp-PLA2 Activity Radiometric (Lp-PLA2 [2]; 120 mg, 3 hr after dosing): 14.09 nmol/min/mL and 12.80 nmol/min/mL and 10.00 nmol/min/mL (2×) and 21.08 nmol/min/mL
- % Inhibition Radiometric (Lp-PLA2 [2]; 120 mg, 4 hr after dosing): 90.91% and 72.94%
- Lp-PLA2 Activity Radiometric (Lp-PLA2 [2]; 120 mg, 4 hr after dosing): 14.00 nmol/min/mL and 10.00 nmol/min/mL (2×)
- % Inhibition Radiometric (Lp-PLA2 [2]; 120 mg, 5 hr after dosing): 91.73%
- Lp-PLA2 Activity Radiometric (Lp-PLA2 [2]; 120 mg, 5 hr after dosing): 14.05 nmol/min/mL and 11.69 nmol/min/mL and 10.00 nmol/min/mL (2×) and 20.24 nmol/min/mL
- Lp-PLA2 Activity Radiometric (Lp-PLA2 [2]; 120 mg, 6 hr after dosing): 10.00 nmol/min/mL
- Lp-PLA2 Activity Radiometric (Lp-PLA2 [2]; 120 mg, 9 hr after dosing): 21.11 nmol/min/mL and 18.51 nmol/min/mL and 14.41 nmol/min/mL and 32.48 nmol/min/mL and 11.21 nmol/min/mL
- Lp-PLA2 Activity Radiometric (Lp-PLA2 [2]; 120 mg, 12 hr after dosing): 24.22 nmol/min/mL and 21.27 nmol/min/mL and 16.97 nmol/min/mL and 34.26 nmol/min/mL and 15.69 nmol/min/mL

Reference: US7741020B2, “Methods for detecting Lp-PLA2 activity and inhibition of Lp-PLA2 activity” (Glaxo Group Limited, priority 2004, dated 2010)
